Measurements taken from paper PMC8126888 (RSC Medicinal Chemistry, 2020).
Where two headings read alike, the source gives them in different places.

Experiments:
[1] = system: Leishmania infantum (MHOM/MA/67/ITMAP-263) intracellular amastigotes in THP-1; assay: microbe, parasite or virus in culture; conditions: THP-1, read-out: L. infantum MHOM/MA/67/ITMAP263 intracellular amastigotes THP-1 cells IC50 (uM)
[2] = in vitro; conditions: PAMPA
[3] = in vitro; conditions: human, THP-1 cells differentiated with PMA
[4] = system: primary peritoneal mouse macrophages (PMM); assay: cells; conditions: Macrophage, read-out: PMM IC50 (uM)
[5] = in vitro; conditions: human
[6] = system: Leishmania infantum MHOM/MA(BE)/67/ITMAP263 intracellular amastigotes; assay: microbe, parasite or virus in culture; conditions: Macrophage, in Mus musculus
[7] = in vitro; conditions: human, microsomes, pH 7.4, HLM CLint (uL/min/mg), human liver microsomes
[8] = in vitro; conditions: human, HFF-1 cells
[9] = in vitro; conditions: mouse, microsomes, pH 7.4, MLM CLint (uL/min/mg), mouse liver microsomes
[10] = system: Trypanosoma cruzi, Tulahuen CL2, beta-galactosidase strain; assay: microbe, parasite or virus in culture; conditions: MRC5, read-out: T. cruzi Tulahuen C4 (LacZ) IC50 (uM)
[11] = in vitro; conditions: human, HepG2 cells
[12] = physchem; conditions: HPLC, Ascentis Express RP Amide column, pH 7.4, eLogD, experimental
[13] = read-out: L. Inf. pIC50, from L. infantum intracellular amastigote IC50 (converted)
[14] = read-out: L. infantum MHOM/MA(BE)/67/ITMAP263 intracellular amastigotes IC50 (uM), intracellular amastigotes

CCN(Cc1ccc(F)cc1)S(=O)(=O)c1cc(C(=O)N2CCOCC2)ccc1OC [DNDI0003392124]
IC50 [1]: > 64 µM
Papp [2]: 15.5 ×10⁻⁶ cm/s
CC50 at 120 h [3]: > 64 µM
IC50 [4]: > 64 µM
CC50 at 3 days [5]: > 64 µM
IC50 [6, 13]: 20.9 µM
IC50 [6, 14]: 20.7 µM
microsomal CLint at 0.5 μM [7]: 142 µL/min/mg
CC50 [8]: > 64 µM
microsomal CLint at 0.5 μM [9]: 116 µL/min/mg
IC50 [10]: 36 µM
CC50 [11]: > 64 µM
chromatographic logD [12]: 2.7

COCCN(Cc1ccccc1)S(=O)(=O)c1ccccc1OC(F)(F)F [DNDI0003392130]
IC50 [1]: 31.2 µM
Papp [2]: 5.26 ×10⁻⁶ cm/s
CC50 at 120 h [3]: > 64 µM
IC50 [4]: > 64 µM
CC50 at 3 days [5]: > 64 µM
IC50 [6, 13]: 8.32 µM
IC50 [6, 14]: 8.27 µM
microsomal CLint at 0.5 μM [7]: 194 µL/min/mg
CC50 [8]: 45.1 µM
microsomal CLint at 0.5 μM [9]: 222 µL/min/mg
IC50 [10]: 17.8 µM
CC50 [11]: > 64 µM
chromatographic logD [12]: 3.8

NS(=O)(=O)c1cc2c(cc1Cl)NCN(Cc1ccccc1)S2(=O)=O [DNDI0003392143]
IC50 [1]: > 64 µM
Papp [2]: 2.83 ×10⁻⁶ cm/s
CC50 at 120 h [3]: > 64 µM
IC50 [4]: > 64 µM
CC50 at 3 days [5]: > 64 µM
IC50 [6, 13]: 57.5 µM
IC50 [6, 14]: 57 µM
microsomal CLint at 0.5 μM [7]: 21 µL/min/mg
CC50 [8]: > 64 µM
microsomal CLint at 0.5 μM [9]: 164 µL/min/mg
IC50 [10]: 27.2 µM
CC50 [11]: > 64 µM
chromatographic logD [12]: 2.3

O=S(=O)(NCc1ccccc1)c1cc2c(cc1Cl)NCN(Cc1ccccc1)S2(=O)=O [DNDI0003392144]
IC50 [1]: > 64 µM
Papp [2]: 1.61 ×10⁻⁶ cm/s
CC50 at 120 h [3]: 53.2 µM
IC50 [4]: > 64 µM
CC50 at 3 days [5]: > 64 µM
IC50 [6, 13]: > 64 µM
IC50 [6, 14]: > 64 µM
microsomal CLint at 0.5 μM [7]: 82 µL/min/mg
CC50 [8]: 60.2 µM
microsomal CLint at 0.5 μM [9]: 261 µL/min/mg
IC50 [10]: 35.7 µM
CC50 [11]: > 64 µM
chromatographic logD [12]: 3.7

COc1ccc(Cl)cc1S(=O)(=O)N(Cc1ccccc1)C1COC(=O)OC1 [DNDI0003392146]
IC50 [1]: > 64 µM
Papp [2]: 13.2 ×10⁻⁶ cm/s
CC50 at 120 h [3]: > 64 µM
IC50 [4]: > 64 µM
CC50 at 3 days [5]: 59.1 µM
IC50 [6, 13]: 17 µM
IC50 [6, 14]: 16.9 µM
microsomal CLint at 0.5 μM [7]: 21 µL/min/mg
CC50 [8]: 54.8 µM
microsomal CLint at 0.5 μM [9]: 118 µL/min/mg
IC50 [10]: 17 µM
CC50 [11]: > 64 µM
chromatographic logD [12]: 3.5

CCCCC1Nc2cc(Cl)c(S(N)(=O)=O)cc2S(=O)(=O)N1Cc1ccccc1 (stereo not shown) [DNDI0003392147]
IC50 [1]: 23.4 µM
Papp [2]: 1.39 ×10⁻⁶ cm/s
CC50 at 120 h [3]: 12 µM
IC50 [4]: > 64 µM
CC50 at 3 days [5]: > 64 µM
IC50 [6, 13]: 7.24 µM
IC50 [6, 14]: 7.3 µM
microsomal CLint at 0.5 μM [7]: 22 µL/min/mg
CC50 [8]: > 64 µM
microsomal CLint at 0.5 μM [9]: 147 µL/min/mg
IC50 [10]: > 64 µM
CC50 [11]: > 64 µM
chromatographic logD [12]: 4

CCCCOc1ccc(C(=O)N2CCOCC2)cc1S(=O)(=O)NCc1ccccc1 [DNDI0003407874]
IC50 [1]: > 64 µM
Papp [2]: 27.4 ×10⁻⁶ cm/s
CC50 at 120 h [3]: > 64 µM
IC50 [4]: > 64 µM
CC50 at 3 days [5]: > 64 µM
IC50 [6, 13]: > 64 µM
IC50 [6, 14]: > 64 µM
microsomal CLint at 0.5 μM [7]: 160 µL/min/mg
CC50 [8]: > 64 µM
microsomal CLint at 0.5 μM [9]: 274 µL/min/mg
IC50 [10]: 45.9 µM
CC50 [11]: > 64 µM
chromatographic logD [12]: 3.1

COCCOCN1CNc2cc(OC)c(S(=O)(=O)N(Cc3ccccc3)Cc3ccccc3)cc2S1(=O)=O [DNDI0003425511]
IC50 [1]: 14.8 µM
Papp [2]: 0.92 ×10⁻⁶ cm/s
CC50 at 120 h [3]: 40.2 µM
IC50 [4]: > 64 µM
CC50 at 3 days [5]: > 64 µM
IC50 [6, 13]: 0.661 µM
IC50 [6, 14]: 0.65 µM
microsomal CLint at 0.5 μM [7]: 460 µL/min/mg
CC50 [8]: > 64 µM
microsomal CLint at 0.5 μM [9]: 976 µL/min/mg
IC50 [10]: 61.7 µM
CC50 [11]: 52 µM

COc1ccc(C#N)cc1S(=O)(=O)N(Cc1ccccc1)Cc1cnc(C(F)(F)F)nc1 [DNDI0003425527]
IC50 [1]: 61.1 µM
Papp [2]: 29.4 ×10⁻⁶ cm/s
CC50 at 120 h [3]: > 64 µM
IC50 [4]: > 64 µM
CC50 at 3 days [5]: > 64 µM
IC50 [6, 13]: 3.89 µM
IC50 [6, 14]: 3.9 µM
microsomal CLint at 0.5 μM [7]: 80 µL/min/mg
CC50 [8]: > 64 µM
microsomal CLint at 0.5 μM [9]: 100 µL/min/mg
IC50 [10]: 28.4 µM
CC50 [11]: > 64 µM
